Source: paper PMC6130205 (Journal of medicinal chemistry, 2018)

Legend:
Type in all cases: biochemical
SIRT1 [1] = biological target: T1, SIRT1 (Homo sapiens, UniProt Q96EB6); experiment: fluorometric substrate cleavage kinetics
T1 sequence (Q96EB6 2-747): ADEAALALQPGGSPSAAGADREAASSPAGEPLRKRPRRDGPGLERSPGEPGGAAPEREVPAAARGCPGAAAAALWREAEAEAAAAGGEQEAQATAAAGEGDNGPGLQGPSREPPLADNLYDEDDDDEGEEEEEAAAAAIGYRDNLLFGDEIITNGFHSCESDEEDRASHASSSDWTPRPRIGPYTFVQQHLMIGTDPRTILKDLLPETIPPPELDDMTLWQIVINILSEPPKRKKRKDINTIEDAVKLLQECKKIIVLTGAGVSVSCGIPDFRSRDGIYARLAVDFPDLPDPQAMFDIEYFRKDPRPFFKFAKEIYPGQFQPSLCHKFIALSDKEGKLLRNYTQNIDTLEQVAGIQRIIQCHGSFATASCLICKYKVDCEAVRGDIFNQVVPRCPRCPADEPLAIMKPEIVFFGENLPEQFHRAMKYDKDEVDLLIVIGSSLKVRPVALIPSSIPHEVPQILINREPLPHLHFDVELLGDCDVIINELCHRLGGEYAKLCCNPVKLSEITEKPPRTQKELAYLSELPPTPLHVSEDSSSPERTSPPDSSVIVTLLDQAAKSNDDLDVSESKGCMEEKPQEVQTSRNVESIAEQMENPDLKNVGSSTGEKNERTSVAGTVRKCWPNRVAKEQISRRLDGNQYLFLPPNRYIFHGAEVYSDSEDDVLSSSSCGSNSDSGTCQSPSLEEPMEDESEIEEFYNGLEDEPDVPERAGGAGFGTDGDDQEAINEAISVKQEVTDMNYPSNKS

SIRT1 [2] = biological target: T1, SIRT1; experiment: fluorometric substrate cleavage
SIRT1 [3] = biological target: T1, SIRT1; experiment: in vitro SIRT1 reaction monitored by […] NMR

For Cc1cc(=O)oc2cc(NC(=O)[C@H](CCCCNC(=O)c3ccccc3F)NC(=O)OCc3ccccc3)ccc12 [compound 2, Benzyl (6-(2-Fluorobenzamido)-1-((4-methyl-2-oxo-2H-chromen-7-yl)amino)-1-oxohexan-2-yl)carbamate], the “fluorometric substrate cleavage kinetics (Kcat/Km)” value (SIRT1 [1]) was 26.02 ± 7.07 M⁻¹ s⁻¹.

For Cc1cc(=O)oc2cc(NC(=O)[C@H](CCCCNC(=O)c3ccc(F)cc3)NC(=O)OCc3ccccc3)ccc12 [compound 4, Benzyl (6-(4-Fluorobenzamido)-1-((4-methyl-2-oxo-2H-chromen-7-yl)amino)-1-oxohexan-2-yl)carbamate], the “fluorometric substrate cleavage kinetics (Kcat/Km)” value (SIRT1 [1]) was 16.08 ± 1.32 M⁻¹ s⁻¹.

With Cc1cc(=O)oc2cc(NC(=O)[C@H](CCCCNC(=O)c3ccccc3)NC(=O)OCc3ccccc3)ccc12 [compound 1, Benzyl (6-Benzamido-1-((4-methyl-2-oxo-2H-chromen-7-yl)-amino)-1-oxohexan-2-yl)carbamate] the “fluorometric substrate cleavage (Kcat)” value (SIRT1 [2]) was “(0.41 ± 0.014) × 10^−3 s^−1”.

With CCc1ccc(C(=O)NCCCC[C@H](NC(=O)OCc2ccccc2)C(=O)Nc2ccc3c(C)cc(=O)oc3c2)cc1 [compound 5, Benzyl (6-(4-Ethylbenzamido)-1-((4-methyl-2-oxo-2H-chromen-7-yl)amino)-1-oxohexan-2-yl)carbamate] the “fluorometric substrate cleavage (Kcat)” value (SIRT1 [2]) was “the 4-ethyl substitution increased the Kcat for SIRT1 but only minimally”.

With Cc1cc(=O)oc2cc(NC(=O)[C@H](CCCCNC(=O)Cc3ccccc3)NC(=O)OCc3ccccc3)ccc12 [compound 7] the “fluorometric substrate cleavage (Kcat)” value (SIRT1 [2]) was “(0.37 ± 0.02) × 10^−3 s^−1”.

With O=C(CCCCCNC(=O)c1ccccc1F)Nc1ccccc1 [compound 12, 2-FBzAHA] the “in vitro SIRT1 reaction monitored by 19F NMR” value (SIRT1 [3]) was “The enzymatic cleavage of 2F-BzAHA by SIRT1 was validated using an in vitro SIRT1 enzyme assay”.

Cc1cc(=O)oc2cc(NC(=O)[C@H](CCCCNC(=O)c3cccc(F)c3)NC(=O)OCc3ccccc3)ccc12 [compound 3, Benzyl (6-(3-Fluorobenzamido)-1-((4-methyl-2-oxo-2H-chromen-7-yl)amino)-1-oxohexan-2-yl)carbamate] was tested, and the “fluorometric substrate cleavage kinetics (Kcat/Km)” value (SIRT1 [1]) was 63.39 ± 4.32 M⁻¹ s⁻¹.
